In PMC12469269, “Investigating SMR Peptide Interactions with Breast Cancer-Associated Proteins” (International Journal of Molecular Sciences, 2025):
Where no end group is shown, it is not given here.

Assays:
MDA-MB-231 cells = test: Tumor exosome secretion, Mortalin scanning peptides (Figure 5B), MDA-MB-231; format: cell-based, human; details: 50 ng / 200 μL peptide, transfected, 48 h, N-Rh-PE fluorescence in media; SMRmut = 100; mean of three independent experiments
Method: (§1) Figure 5 Effects of Mortalin-derived peptides on inhibition of exNef and tumor exosome secretion. (A) Jurkat T cells were co-transfected with 250 ng of wild-type Nef-GFP plasmid and 50 ng of Mortalin-derived scanning peptides (#56–#67), including SMRwt and SMRmut as positive and negative controls. After 48 h, GFP fluorescence in culture media was measured to assess exNef secretion. Data represent mean ± SD from three independent experiments. Statistical significance was determined using a two-sample t-test assuming equal variances. (B) MDA-MB-231 cells were transfected with 50 ng of Mortalin-derived scanning peptides (#56–#67), including SMRwt and SMRmut controls. Cells were labeled with N-Rh-PE and incubated for 48 h. N-Rh-PE fluorescence in culture media was measured to assess exosome secretion. Data represent mean ± SD from three independent experiments. Statistical significance was determined using a two-sample t-test assuming equal variances. TEXT PRINTED IN THE PICTURE: (A) #56: Jurkat GFP (%): 117.84 (50 ng / 200 μL) | (A) #57: Jurkat GFP (%): 96.69 (50 ng / 200 μL) | (A) #58: Jurkat GFP (%): 91.89 (50 ng / 200 μL) | (A) #59: Jurkat GFP (%): 95.49 (50 ng / 200 μL) | (A) #60: Jurkat GFP (%): 98.25 (50 ng / 200 μL) | (A) #61: Jurkat GFP (%): 0.65 (50 ng / 200 μL) | (A) #62: Jurkat GFP (%): 0.51 (50 ng / 200 μL) | (A) #63: Jurkat GFP (%): 98.02 (50 ng / 200 μL) | (A) #64: Jurkat GFP (%): 95.37 (50 ng / 200 μL) | (A) #65: Jurkat GFP (%): 96.34 (50 ng / 200 μL) | (A) #66: Jurkat GFP (%): 92.28 (50 ng / 200 μL) | (A) #67: Jurkat GFP (%): 99.56 (50 ng / 200 μL) | (A) SMRwt: Jurkat GFP (%): 0.51 (50 ng / 200 μL) | (A) SMRmut: Jurkat GFP (%): 100 (50 ng / 200 μL) | (B) #56: MDA-MB-231 N-Rh-PE (%): 66.31 (50 ng / 200 μL) | (B) #57: MDA-MB-231 N-Rh-PE (%): 79.73 (50 ng / 200 μL) | (B) #58: MDA-MB-231 N-Rh-PE (%): 68.11 (50 ng / 200 μL) | (B) #59: MDA-MB-231 N-Rh-PE (%): 67.81 (50 ng / 200 μL) | (B) #60: MDA-MB-231 N-Rh-PE (%): 72.32 (50 ng / 200 μL) | (B) #61: MDA-MB-231 N-Rh-PE (%): 7.53 (50 ng / 200 μL) | (B) #62: MDA-MB-231 N-Rh-PE (%): 5.36 (50 ng / 200 μL) | (B) #63: MDA-MB-231 N-Rh-PE (%): 75.39 (50 ng / 200 μL) | (B) #64: MDA-MB-231 N-Rh-PE (%): 73.49 (50 ng / 200 μL) | (B) #65: MDA-MB-231 N-Rh-PE (%): 81.65 (50 ng / 200 μL) | (B) #66: MDA-MB-231 N-Rh-PE (%): 81.79 (50 ng / 200 μL) | (B) #67: MDA-MB-231 N-Rh-PE (%): 89.82 (50 ng / 200 μL) | (B) SMRwt: MDA-MB-231 N-Rh-PE (%): 6.11 (50 ng / 200 μL) | (B) SMRmut: MDA-MB-231 N-Rh-PE (%): 100 (50 ng / 200 μL)
To assess the effect of Mortalin-derived peptides on tumor exosome secretion, MDA-MB-231 breast cancer cells were transfected with the same panel of scanning peptides and labeled with N-Rh-PE to track exosome release. Following incubation, N-Rh-PE fluorescence in the culture media was measured as a proxy for extracellular exosome levels. SMRwt and SMRmut peptides were again used as controls. […] Statistical analysis confirmed significant differences: SMRmut vs. #61 (p < 7.20 × 10^−7), SMRmut vs. #62 (p < 5.70 × 10^−7), and SMRmut vs. SMRwt (p < 5.96 × 10^−7).

Jurkat T cells = test: exNef secretion, Mortalin scanning peptides (Figure 5A), Jurkat T cells; format: cell-based; details: 50 ng / 200 μL peptide, 250 ng Nef-GFP plasmid, 48 h, GFP fluorescence in media; SMRmut = 100; mean of three independent experiments
Method: To determine whether Mortalin-derived peptides can inhibit the secretion of extracellular Nef (exNef), Jurkat T cells were co-transfected with wild-type Nef-GFP and various scanning peptides derived from the substrate-binding domain of Mortalin (#56–#67). SMRwt and SMRmut peptides were included as positive and negative controls, respectively. After 48 h of incubation, GFP fluorescence in the culture media was measured as a proxy for exNef secretion.
as §1
To identify peptide sequences within Mortalin that modulate extracellular vesicle (EV) secretion, a panel of scanning peptides was synthesized and tested in Jurkat T cells. The peptides, listed in Table 1, were custom-synthesized with an average purity of 75% and used in transfection assays to evaluate their impact on EV release. Jurkat T cells (3 × 10^5) were co-transfected with 50 ng of individual Mortalin peptides […] 250 ng of wild-type Nef-GFP plasmid using Chariot™ transfection reagent. Transfection efficiency was confirmed by fluorescence microscopy after 48 h. EV secretion was assessed by measuring GFP fluorescence in the culture media, and statistical analysis was performed using unpaired two-factor t-tests (p < 0.05). Panel of Mortalin scanning peptides developed and tested for their effect EV secretion and Table S2. Mortalin Scanning Peptides Used in Transfection Assays, see the Supplementary Information. […]

Nef protein = Nef protein (Human immunodeficiency virus type 1 group M subtype B, UniProt P03404); test: SPR binding of Mortalin peptides to immobilized Nef; set-up: species or system HIV-1; details: for kon: pH 7.4, read-out: ka (Nef)
Method: Figure 8 depicts the SPR results for Mortalin peptides binding to Nef. The Nef protein was immobilized as a ligand on the chip surface, and the peptides were used as analytes to flow into the buffer solution.
(§2) SPR experiments were conducted using a Biacore T200 instrument (Cytiva, Marlborough, MA, USA). CM5 sensor chips (Cytiva) were used to immobilize proteins and run subsequent binding assays at 25 °C. To investigate the direct binding of Nef and SMR peptides to Vimentin and Mortalin and SMR competition studies, both proteins were immobilized as ligands on the active flow cells (FCs) using standard amine coupling chemistry. One reference FC was prepared using the same surface chemistry, and no proteins were immobilized onto this reference FC. Vimentin was immobilized to a level of ~2500 RU to 7200 RU in the presence of 4 mM of HCl and Mortalin to a level of ~11,900 RU to 13,200 RU in the presence of 10 mM of sodium acetate buffer at pH 4.5. Analytes were then injected (Nef, SMR peptides, Mortalin peptides, and mixtures of […]). One 20 s pulse of 1:500 H3PO4 (H3PO4:ddH2O) was injected for surface regeneration. To investigate the direct binding of Mortalin peptides to Nef, Nef was immobilized as a ligand to ~450 RU using thiol coupling chemistry. A reference FC was created using a method similar to the one above. Mortalin peptides were then injected as analytes. One 20 s pulse of 1 M NaCl was injected for surface regeneration. HBS-P (10 mM Hepes, pH 7.4; 150 mM NaCl; 0.05% surfactant P20) was used as the immobilization running buffer during the immobilization of all ligands. HBS-P was also used to dilute analytes and as a running buffer during all analyte–ligand binding assays. SPR data used for analysis was both blank (signals due to HBS-P only) and reference-subtracted (signals corresponding to reference FCs). Sensorgrams recorded for kinetics analyses were fitted to a 1:1 binding model using the Biacore T200 evaluation software version 3.2.1. GraphPad Prism version 10.4.0 was used to plot all graphs.

MDA-MB-231 BC cells = test: Exosome secretion by N-Rh-PE (Figure 4A), MDA-MB-231; format: cell-based, human; details: 100 ng/mL peptide, 24 h, no transfection, N-Rh-PE fluorescence, three independent experiments
Method: (§3) Figure 4 Effects of SMR, Mortalin, and Vimentin peptides on tumor cell exosome secretion in MDA-MB-231 and MCF-7 breast cancer cells. MDA-MB-231 and MCF-7 BC cells (200 µL, 1 × 10^4 cells/mL) were seeded into a 96-well plate and treated with 100 ng/mL of either wild-type (wt) or mutant (mut) peptides of SMR, Mortalin, or Vimentin. Treatments were performed in RPMI-1640 medium without transfection, and cells were incubated at 37 °C for 24 h. The cells were then treated with 0.5 µM/mL of N-Rh-PE, incubated at 4 °C for 1 h, and washed with PBS. Fresh medium was also added. The cultures were incubated at 37 °C for an additional 24 h. N-Rh-PE refers to N-(Lissamine Rhodamine B sulfonyl) phosphatidyl-ethanolamine, a fluorescent lipid dye commonly used to label membranes and track vesicle trafficking. […] Exosome secretion was assessed by measuring the amount of N-Rh-PE, which corresponds to the number of exosomes released into the extracellular medium. Bar graphs show the relative exosome release level. Data represent the mean ± SD of three independent experiments.

MCF-7 BC cells = test: Exosome secretion by N-Rh-PE (Figure 4B), MCF-7; format: cell-based, human; details: 100 ng/mL peptide, 24 h, no transfection, N-Rh-PE fluorescence, three independent experiments
Method: as §3

[1] = target: T1, Recombinant Human Vimentin Protein (Homo sapiens, UniProt P08670); test: biochemical; format: binding
T1 construct: purchased Novus Biologicals, LLC/R&D Systems 2105-VI-100
Source text: (§4) We conducted SPR experiments to characterize and quantify the direct binding interactions between Nef and SMR peptides (the analytes) and the target proteins, Vimentin and Mortalin (the immobilized ligands). We did so by injecting the analytes at various concentrations over the chip surface with the immobilized ligands.
(§5) Recombinant Human Vimentin Protein, CF (catalog # 2105-VI-100), Recombinant Human GRP75/HSPA9B/Mortalin His Protein (catalog # NBC1-18380), and Recombinant Human HSPA8/HSC71/Hsc70 His Protein (Catalog # NBPI-30278) were purchased from Novus Biologicals, LLC/R&D Systems, Centennial, CO, USA. These proteins were used for SPR.
as §2

[2] = target: T2, Recombinant Human GRP75/HSPA9B/Mortalin His Protein (Homo sapiens, UniProt P38646); test: biochemical; format: binding
T2 construct: His; purchased Novus Biologicals, LLC/R&D Systems NBC1-18380
Source text: as §4, §5, §2

T2 sequence (P38646 47-679): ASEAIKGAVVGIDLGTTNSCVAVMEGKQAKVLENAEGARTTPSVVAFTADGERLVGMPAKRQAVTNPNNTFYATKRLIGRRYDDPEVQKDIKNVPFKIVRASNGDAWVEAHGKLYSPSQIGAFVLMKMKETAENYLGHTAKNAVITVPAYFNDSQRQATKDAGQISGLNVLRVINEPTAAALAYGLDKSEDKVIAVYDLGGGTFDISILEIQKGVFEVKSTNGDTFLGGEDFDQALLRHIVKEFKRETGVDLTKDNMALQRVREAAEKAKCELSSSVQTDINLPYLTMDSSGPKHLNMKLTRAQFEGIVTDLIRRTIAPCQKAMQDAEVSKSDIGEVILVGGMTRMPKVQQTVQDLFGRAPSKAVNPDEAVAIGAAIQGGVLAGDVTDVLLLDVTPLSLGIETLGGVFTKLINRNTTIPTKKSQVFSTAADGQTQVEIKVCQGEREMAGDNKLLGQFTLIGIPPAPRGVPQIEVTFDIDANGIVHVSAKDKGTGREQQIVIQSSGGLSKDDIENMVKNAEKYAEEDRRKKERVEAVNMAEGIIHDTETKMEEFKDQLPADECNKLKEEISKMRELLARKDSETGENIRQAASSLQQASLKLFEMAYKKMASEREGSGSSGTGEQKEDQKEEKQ
T1 sequence (P08670 whole entry): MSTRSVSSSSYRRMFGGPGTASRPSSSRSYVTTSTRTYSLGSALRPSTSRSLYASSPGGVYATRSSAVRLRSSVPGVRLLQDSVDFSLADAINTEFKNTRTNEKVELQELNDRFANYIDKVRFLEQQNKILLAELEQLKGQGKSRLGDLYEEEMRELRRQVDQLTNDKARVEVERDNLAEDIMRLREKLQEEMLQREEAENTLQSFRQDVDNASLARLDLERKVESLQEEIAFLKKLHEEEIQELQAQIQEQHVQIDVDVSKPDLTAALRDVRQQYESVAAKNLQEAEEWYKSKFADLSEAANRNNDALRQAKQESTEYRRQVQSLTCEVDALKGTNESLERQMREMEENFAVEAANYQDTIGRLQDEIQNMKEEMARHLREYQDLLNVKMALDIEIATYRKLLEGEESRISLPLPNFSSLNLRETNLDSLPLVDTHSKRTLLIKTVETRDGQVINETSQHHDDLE

Substance	MDA-MB-231 N-Rh-PE (exosome secretion) (MDA-MB-231 cells)	Jurkat GFP (exNef secretion) (Jurkat T cells)	further results
AVNMAEGIIHDTETKMEEFK [#59, Mortalin scanning peptide 59]	67.81%	95.49%	–
AYKKMASEREGSGSSGTGEQ [#66, Mortalin scanning peptide 66]	81.79%	92.28%	–
DTETKMEEFKDQLPADECNK [#60, Mortalin scanning peptide 60]	72.32%	98.25%	–
EDRRKKERVEAVNMAEGIIH [#58, Mortalin scanning peptide 58]	68.11%	91.89%	–
ENIRQAASSLQOASLKLFEM [#64, Mortalin scanning peptide 64]	73.49%	95.37%	–
GGLSKDDIENMVKNAEKYAE [#56]	–	–	Kd (Nef protein): 76.9 µM; kon (Nef protein): 370 M⁻¹ s⁻¹
GSGSSGTGEQKEDQKEEKQ [#67, Mortalin scanning peptide 67]	89.82%	99.56%	–
LKEEISKMRELLARKDSETG [#62]	–	–	Kd (Nef protein): 1.9 µM; kon (Nef protein): 1970 M⁻¹ s⁻¹
LLARKDSETGENIRQAASSL [#63, Mortalin scanning peptide 63]	75.39%	98.02%	–
LYEEEMRE [VIM-wt, Vimentin-wt peptide (LYEEEMRE)]	–	–	exosome release vs untreated, in words (MDA-MB-231 BC cells): significantly decreased exosome release; p, UT vs. peptide, exosome release (MDA-MB-231 BC cells): < 0.00005; exosome release vs untreated, in words (MCF-7 BC cells): significantly decreased exosome release; p, UT vs. peptide, exosome release (MCF-7 BC cells): < 0.00005
MVKNAEKYAEEDRRKKERVE [#57, Mortalin scanning peptide 57]	79.73%	96.69%	–
QOASLKLFEMAYKKMASERE [#65, Mortalin scanning peptide 65]	81.65%	96.34%	–
VGFPV [SMRwt, ^66Val-Gly-Phe-Pro-Val^70]	–	–	Kd [1]: 6.63 µM; kon ([1]; pH 7.4, read-out: ka (Vimentin)): 6410 M⁻¹ s⁻¹; Kd [2]: 20.7 µM; kon ([2]; pH 7.4, read-out: ka (Mortalin)): 671 M⁻¹ s⁻¹
